Results: patent US20210206744A1, “BENZIMIDAZOLE COMPOUNDS AS AGRICULTURAL CHEMICALS” (REDAG CROP PROTECTION LTD, priority 2017, published 2021)

Legend:
[1] = system: Pythium ultimum; assay: Amended agar assay; type: cell-based; settings: Globisporangium ultimum; potato dextrose agar amended with compound at 2 ppm, 18° C., 2 to 7 days; read-out: % control Pythium ultimum (% reduction in colony growth compared to the control plate)
Description: Amended Agar Assay Testing was carried out on potato dextrose agar (PDA) amended with each compound at a test concentration of 2 ppm. Amended agar was poured into three replicate 9 cm petri dishes. Each replicate dish was inoculated in the centre with a 5 mm agar plug taken from the leading edge of a culture aged between 2 and 7 days old; the age of the culture was dependent on the growth rate of the pathogen being tested. The test pathogen was Pythium ultimum. Plates were incubated at 18° C. and the diameter of each colony measured before growth on the fastest growing plate reached the plate edge. This varied between 2 and 7 days depending on the growth rate of test pathogens. The % reduction in colony growth compared to the control plate was calculated. The results are provided in Table 1, in which D represents no control detected at this concentration; C represents up to 50% control; B from 50 to 99% control; and A represents a control of greater than 99%, i.e. no detectable colony growth.

[2] = system: Phytophthora cactorum; assay: 96 well plate test; type: cell-based; settings: Phytophthora cactorum; agar amended to 2, 0.2, 0.02 and 0.002 ppm, 18° C., assessed after 2 to 3 days
Description: Compounds were screened in 96 well plates with 10 compounds per plate. Each compound was screened using agar amended to 2, 0.2, 0.02 and 0.002 ppm, with proline at 50 and 10 ppm and 0.2% DMSO used as controls. Each test concentration and standard was replicated twice on a plate. Compounds were screened against Phytophthora cactorum. The agar used in the test is a 1% potato dextrose agar. 1000 spores/mL agar were added to the appropriate agar.
A ×10 stock solution in 2% DMSO was produced for each dose i.e. 20, 2, 0.2 and 0.02 ppm, and 10 μl of this added to the appropriate wells on the plate. An equivalent amount of 2% DMSO and proline stock at 500 and 100 ppm were added for the controls. To each well 90 μl of the appropriate agar spore suspension was added to give the required final well concentrations. Plates were incubated at room temperature (18° C.) and assessed after 2 to 3 days. The amount of pathogen growth in each well was compared to the DMSO controls and an EC50 concentration was calculated. The results are provided in Table 1 in which G represents no control detected at 2 ppm, F represents an EC50 of ≥2 ppm, and E represents an EC50 of less than 2 ppm.

SMILES: COc1cc(F)cc2c1nc(OCc1cccc(NC(=O)COc3ccccc3)n1)n2-c1nnnn1C [Compound 5]
- inhibition of growth at 2 ppm [1]: > 99%
- EC50 [2]: < 2 µg/mL

SMILES: CCC(=O)Nc1cccc(COc2nc3c(Cl)cccc3n2-c2nnnn2C)n1 [Compound 23, N-(6-(((4-Chloro-1-(1-methyl-1H-tetrazol-5-yl)-1H-benzo[d]imidazol-2-yl)oxy)methyl)pyridin-2-yl)propionamide]
- inhibition of growth at 2 ppm [1]: > 99%
- EC50 [2]: ≥ 2 µg/mL

SMILES: CC(C)C(=O)Nc1cccc(COc2nc3c(Cl)cccc3n2-c2nnnn2C)n1 [Compound 24]
- inhibition of growth at 2 ppm [1]: > 99%
- EC50 [2]: < 2 µg/mL

SMILES: Cn1nnnc1-n1c(OCc2cccc(NC(=O)COc3ccccc3)n2)nc2c(Br)cccc21 [Compound 36]
- inhibition of growth at 2 ppm [1]: > 99%
- EC50 [2]: < 2 µg/mL

SMILES: CC(C)CC(=O)Nc1cccc(COc2nc3c(Br)cccc3n2-c2nnnn2C)n1 [Compound 41]
- inhibition of growth at 2 ppm [1]: > 99%
- EC50 [2]: < 2 µg/mL

SMILES: Cc1cccc2c1nc(OCc1cccc(NC(=O)COc3ccccc3)n1)n2-c1nnnn1C [Compound 20]
- inhibition of growth at 2 ppm [1]: > 99%
- EC50 [2]: < 2 µg/mL
